From PubChem BioAssay (NCI)
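These data come from cells grown in 96-well plates and exposed to compound for 48 hours at five concentrations. At the TGI there is no net growth.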

Columns and labels:
Experiment in all cases: growth of human tumour cells (NCI), 48 h
COLO 205 colon = system: COLO 205 colon
IGROV1 ovarian = system: IGROV1 ovarian
CAKI-1 renal = system: CAKI-1 renal
OVCAR-8 ovarian = system: OVCAR-8 ovarian
SK-OV-3 ovarian = system: SK-OV-3 ovarian
MDA-MB-231 breast = system: MDA-MB-231 breast
BT-549 breast = system: BT-549 breast
SK-MEL-5 melanoma = system: SK-MEL-5 melanoma
MCF7 breast = system: MCF7 breast
SN12C renal = system: SN12C renal
HCT-116 colon = system: HCT-116 colon
NCI-H460 lung = system: NCI-H460 lung
SR leukemia = system: SR leukemia
SF-295 CNS = system: SF-295 CNS
HCC-2998 colon = system: HCC-2998 colon
OVCAR-3 ovarian = system: OVCAR-3 ovarian
LOX IMVI melanoma = system: LOX IMVI melanoma
ACHN renal = system: ACHN renal
A549 NSCLC = system: A549 NSCLC
MOLT-4 leukemia = system: MOLT-4 leukemia
U251 CNS = system: U251 CNS
SNB-75 CNS = system: SNB-75 CNS
PC-3 prostate = system: PC-3 prostate
RXF 393 renal = system: RXF 393 renal
NCI/ADR-RES ovarian = system: NCI/ADR-RES ovarian
UO-31 renal = system: UO-31 renal
SW-620 colon = system: SW-620 colon
A498 renal = system: A498 renal
CCRF-CEM leukemia = system: CCRF-CEM leukemia
786-0 renal = system: 786-0 renal
DU-145 prostate = system: DU-145 prostate
UACC-257 melanoma = system: UACC-257 melanoma
NCI-H226 lung = system: NCI-H226 lung
SF-539 CNS = system: SF-539 CNS
HS 578T breast = system: HS 578T breast
OVCAR-4 ovarian = system: OVCAR-4 ovarian
K-562 leukemia = system: K-562 leukemia
UACC-62 melanoma = system: UACC-62 melanoma
SK-MEL-2 melanoma = system: SK-MEL-2 melanoma
MDA-N = system: MDA-N
HT29 colon = system: HT29 colon
NCI-H23 lung = system: NCI-H23 lung
TK-10 renal = system: TK-10 renal
HCT-15 colon = system: HCT-15 colon
RPMI-8226 leukemia = system: RPMI-8226 leukemia
SK-MEL-28 melanoma = system: SK-MEL-28 melanoma
EKVX NSCLC = system: EKVX NSCLC
OVCAR-5 ovarian = system: OVCAR-5 ovarian
HOP-62 NSCLC = system: HOP-62 NSCLC
MDA-MB-435 = system: MDA-MB-435
SNB-19 CNS = system: SNB-19 CNS
SF-268 CNS = system: SF-268 CNS
HOP-92 NSCLC = system: HOP-92 NSCLC
M14 melanoma = system: M14 melanoma
T-47D breast = system: T-47D breast
HL-60(TB) leukemia = system: HL-60(TB) leukemia
NCI-H522 lung = system: NCI-H522 lung
KM12 colon = system: KM12 colon

Q: With `CC(=O)NCCc1c(-c2[nH]c3ccccc3c2CCNC(C)=O)[nH]c2ccccc12` as the molecule, how does the TGI (COLO 205 colon) read?
A: Its TGI is over 100 µM.

Q: And the TGI (IGROV1 ovarian)?
A: Its TGI is over 100 µM.

Q: And the TGI (CAKI-1 renal)?
A: The TGI was over 100 µM.

Q: And the TGI (OVCAR-8 ovarian)?
A: The TGI was over 100 µM.

Q: What about the TGI (SK-OV-3 ovarian) of the same molecule?
A: The TGI was over 100 µM.

Q: What about the TGI (MDA-MB-231 breast) of the same molecule?
A: Its TGI is over 100 µM.

Q: What about the TGI (BT-549 breast) of the same molecule?
A: Its TGI is over 100 µM.

Q: What about the TGI (SK-MEL-5 melanoma) of the same molecule?
A: The TGI was over 100 µM.

Q: And the TGI (MCF7 breast)?
A: Its TGI is over 100 µM.

Q: And the TGI (SN12C renal)?
A: Its TGI is over 100 µM.

Q: And the TGI (HCT-116 colon)?
A: The TGI was over 100 µM.

Q: And the TGI (NCI-H460 lung)?
A: The TGI was over 100 µM.

Q: What about the TGI (SR leukemia) of the same molecule?
A: The TGI was over 100 µM.

Q: And the TGI (SF-295 CNS)?
A: Its TGI is over 100 µM.

Q: What about the TGI (HCC-2998 colon) of the same molecule?
A: The TGI was over 100 µM.

Q: What about the TGI (OVCAR-3 ovarian) of the same molecule?
A: The TGI was over 100 µM.

Q: What about the TGI (LOX IMVI melanoma) of the same molecule?
A: Its TGI is over 100 µM.

Q: What about the TGI (ACHN renal) of the same molecule?
A: The TGI was over 100 µM.

Q: And the TGI (A549 NSCLC)?
A: The TGI was over 100 µM.

Q: And the TGI (MOLT-4 leukemia)?
A: The TGI was over 100 µM.

Q: And the TGI (U251 CNS)?
A: Its TGI is over 100 µM.

Q: What about the TGI (SNB-75 CNS) of the same molecule?
A: The TGI was over 100 µM.

Q: What about the TGI (PC-3 prostate) of the same molecule?
A: The TGI was over 100 µM.

Q: What about the TGI (RXF 393 renal) of the same molecule?
A: Its TGI is over 100 µM.

Q: And the TGI (NCI/ADR-RES ovarian)?
A: The TGI was over 100 µM.

Q: And the TGI (UO-31 renal)?
A: Its TGI is over 100 µM.

Q: What about the TGI (SW-620 colon) of the same molecule?
A: The TGI was over 100 µM.

Q: And the TGI (A498 renal)?
A: The TGI was over 100 µM.

Q: And the TGI (CCRF-CEM leukemia)?
A: Its TGI is over 100 µM.

Q: And the TGI (786-0 renal)?
A: The TGI was over 100 µM.

Q: And the TGI (DU-145 prostate)?
A: Its TGI is over 100 µM.

Q: And the TGI (UACC-257 melanoma)?
A: The TGI was over 100 µM.

Q: What about the TGI (NCI-H226 lung) of the same molecule?
A: Its TGI is over 100 µM.

Q: And the TGI (SF-539 CNS)?
A: Its TGI is over 100 µM.

Q: And the TGI (HS 578T breast)?
A: The TGI was over 100 µM.

Q: And the TGI (OVCAR-4 ovarian)?
A: The TGI was over 100 µM.

Q: What about the TGI (K-562 leukemia) of the same molecule?
A: The TGI was over 100 µM.

Q: And the TGI (UACC-62 melanoma)?
A: The TGI was over 100 µM.

Q: What about the TGI (SK-MEL-2 melanoma) of the same molecule?
A: The TGI was over 100 µM.

Q: And the TGI (MDA-N)?
A: The TGI was over 100 µM.

Q: And the TGI (HT29 colon)?
A: The TGI was over 100 µM.

Q: And the TGI (NCI-H23 lung)?
A: Its TGI is over 100 µM.

Q: And the TGI (TK-10 renal)?
A: The TGI was over 100 µM.

Q: What about the TGI (HCT-15 colon) of the same molecule?
A: Its TGI is over 100 µM.

Q: And the TGI (RPMI-8226 leukemia)?
A: The TGI was over 100 µM.

Q: What about the TGI (SK-MEL-28 melanoma) of the same molecule?
A: Its TGI is over 100 µM.

Q: And the TGI (EKVX NSCLC)?
A: Its TGI is over 100 µM.

Q: What about the TGI (OVCAR-5 ovarian) of the same molecule?
A: The TGI was over 100 µM.

Q: What about the TGI (HOP-62 NSCLC) of the same molecule?
A: The TGI was over 100 µM.

Q: What about the TGI (MDA-MB-435) of the same molecule?
A: The TGI was over 100 µM.

Q: And the TGI (SNB-19 CNS)?
A: The TGI was over 100 µM.

Q: And the TGI (SF-268 CNS)?
A: The TGI was over 100 µM.

Q: What about the TGI (HOP-92 NSCLC) of the same molecule?
A: The TGI was over 100 µM.

Q: `Clc1ccccc1/C=C\C1(c2ccccc2)OCCO1` was tested. Which TGI (COLO 205 colon) did it give?
A: Its TGI is 40.2 µM.

Q: What about the TGI (IGROV1 ovarian) of the same molecule?
A: Its TGI is 29.9 µM.

Q: What about the TGI (CAKI-1 renal) of the same molecule?
A: Its TGI is 31.3 µM.

Q: What about the TGI (OVCAR-8 ovarian) of the same molecule?
A: Its TGI is 34.3 µM.

Q: And the TGI (SK-OV-3 ovarian)?
A: The TGI was 91.3 µM.

Q: What about the TGI (MDA-MB-231 breast) of the same molecule?
A: Its TGI is 26.2 µM.

Q: What about the TGI (SK-MEL-5 melanoma) of the same molecule?
A: The TGI was 38.6 µM.

Q: What about the TGI (MCF7 breast) of the same molecule?
A: Its TGI is 7.53 µM.

Q: And the TGI (SN12C renal)?
A: The TGI was 32.7 µM.

Q: And the TGI (HCT-116 colon)?
A: Its TGI is 25.2 µM.

Q: And the TGI (NCI-H460 lung)?
A: The TGI was 32.7 µM.

Q: And the TGI (SR leukemia)?
A: Its TGI is 28.9 µM.

Q: And the TGI (SF-295 CNS)?
A: The TGI was 31.2 µM.

Q: And the TGI (HCC-2998 colon)?
A: The TGI was 31.9 µM.

Q: What about the TGI (OVCAR-3 ovarian) of the same molecule?
A: The TGI was 31.6 µM.

Q: What about the TGI (LOX IMVI melanoma) of the same molecule?
A: Its TGI is 23.7 µM.

Q: And the TGI (ACHN renal)?
A: Its TGI is 31.4 µM.

Q: What about the TGI (A549 NSCLC) of the same molecule?
A: Its TGI is over 100 µM.

Q: What about the TGI (MOLT-4 leukemia) of the same molecule?
A: Its TGI is 73.4 µM.

Q: What about the TGI (U251 CNS) of the same molecule?
A: Its TGI is 24.8 µM.

Q: And the TGI (SNB-75 CNS)?
A: The TGI was 34.3 µM.

Q: And the TGI (RXF 393 renal)?
A: The TGI was 34.5 µM.

Q: And the TGI (M14 melanoma)?
A: Its TGI is over 100 µM.

Q: What about the TGI (NCI/ADR-RES ovarian) of the same molecule?
A: The TGI was 31.5 µM.

Q: And the TGI (UO-31 renal)?
A: Its TGI is over 100 µM.

Q: What about the TGI (T-47D breast) of the same molecule?
A: Its TGI is 43.4 µM.

Q: And the TGI (SW-620 colon)?
A: The TGI was 43.3 µM.

Q: What about the TGI (A498 renal) of the same molecule?
A: Its TGI is 35.8 µM.

Q: What about the TGI (CCRF-CEM leukemia) of the same molecule?
A: Its TGI is 53.8 µM.

Q: And the TGI (786-0 renal)?
A: Its TGI is 31.1 µM.

Q: And the TGI (DU-145 prostate)?
A: Its TGI is 30.3 µM.

Q: And the TGI (UACC-257 melanoma)?
A: The TGI was 31.7 µM.

Q: And the TGI (HL-60(TB) leukemia)?
A: Its TGI is 73.9 µM.

Q: And the TGI (NCI-H226 lung)?
A: The TGI was 44.3 µM.

Q: What about the TGI (SF-539 CNS) of the same molecule?
A: The TGI was 53.3 µM.

Q: And the TGI (HS 578T breast)?
A: Its TGI is 35.1 µM.

Q: And the TGI (OVCAR-4 ovarian)?
A: Its TGI is 33 µM.

Q: And the TGI (NCI-H522 lung)?
A: Its TGI is 29.3 µM.

Q: And the TGI (K-562 leukemia)?
A: Its TGI is over 100 µM.

Q: And the TGI (UACC-62 melanoma)?
A: The TGI was 29.5 µM.

Q: And the TGI (MDA-N)?
A: The TGI was 30.2 µM.

Q: And the TGI (HT29 colon)?
A: The TGI was 33.2 µM.

Q: What about the TGI (NCI-H23 lung) of the same molecule?
A: The TGI was 22.1 µM.

Q: And the TGI (TK-10 renal)?
A: The TGI was 48.4 µM.

Q: What about the TGI (HCT-15 colon) of the same molecule?
A: The TGI was 26.3 µM.

Q: What about the TGI (RPMI-8226 leukemia) of the same molecule?
A: The TGI was 23.1 µM.

Q: And the TGI (SK-MEL-28 melanoma)?
A: Its TGI is 38 µM.

Q: What about the TGI (EKVX NSCLC) of the same molecule?
A: The TGI was 36 µM.

Q: And the TGI (KM12 colon)?
A: Its TGI is 23.7 µM.

Q: What about the TGI (OVCAR-5 ovarian) of the same molecule?
A: The TGI was 44.4 µM.

Q: And the TGI (HOP-62 NSCLC)?
A: The TGI was 39.8 µM.

Q: What about the TGI (MDA-MB-435) of the same molecule?
A: The TGI was 29.6 µM.

Q: What about the TGI (SF-268 CNS) of the same molecule?
A: Its TGI is 29.2 µM.

Q: And the TGI (HOP-92 NSCLC)?
A: Its TGI is over 100 µM.
